Results: US20170137473A1, “FLUOROGEN ACTIVATING AND SHIFTING TAG (FAST)” (PARIS SCIENCES ET LETTRE - QUARTIER LATIN, priority 2014, published 2017)

Assays:
HeLa cells [1] = experiment: LIVE/DEAD viability assay (calceinAM, EthD1) of HeLa cells; type: cell-based; conditions: incubated 5 h at 5, 10 and 20 μM; concentrations used for imaging
Experimental: Cell viability was tested by using calceinAM and EthD1 (LIVE/DEAD® viability/cytotoxicity assay kit). CalceinAM is a cell-permeant profluorophore cleaved by intracellular esterases releasing the green fluorescent polyanionic calcein in live cells. EthD1 (Ethidium homodimer 1) is a non cell-permeant nucleic acid red fluorescent stain that enters only cells with damaged membranes and undergoes a fluorescence enhancement upon binding to nucleic acids, thereby producing a bright red fluorescence in dead cells. Control experiments with HeLa cells non-incubated with dye (top left, live control) or incubated for 1 h with 1% hydrogen peroxyde (top right, dead control) are shown. Cell fluorescence was evaluated by confocal microscopy.

wild-type PYP = target: T1, wild-type PYP (Halorhodospira halophila, UniProt P16113, C69G); experiment: Fluorogen labeling of cells expressing wild-type PYP; type: cell-based
T1 construct: fusion partner differs by host: Aga2p (yeast surface display, pAG14); His-tag-ENLYFQG (E. coli, pET28a); expressed in transfected cells
Experimental: (§1) Flow cytometry analysis was performed on an Accuri C6 (BD Biosciences). Confocal micrographs were acquired on a Zeiss LSM 710 Laser Scanning Microscope equipped with a Plan Apochromat 63×/1.4 NA oil immersion objective. ZEN software was used to collect the data. Images were analyzed with Image J. Spinning-disk confocal micrographs were acquired on a Nikon Eclipse Ti microscope equipped with a 4×/0.15 N.A objective and a coolSnap HQ2/CDDcamera (Princeton Instrument). Metamorph premier 7.6 software (Molecular Devices) was used to collect the data.
(§2) Labeling of Y-FAST with HBR and HMBR in cells was then analyzed by flow cytometry in three different expression systems: yeast, E. coli and mammalian cells (HeLa cells). The fluorescence was compared to wild-type cells or cells expressing wild-type PYP. […] The performance and selectivity of Y-FAST labeling in mammalian cells, yeast and bacteria was furthermore confirmed by confocal microscopy (FIG. 14d and FIGS. 15 c to f and FIG. 16).

[2] = test system: wild-type bacteria, yeast and mammalian cells; experiment: Fluorescence background of fluorogen in wild-type cells (flow cytometry, confocal); type: cell-based
Experimental: as §1, §2

[3] = Acid-base titration and absorption/emission of free fluorogen in aqueous solution; type: physicochemical
Experimental: (§3) pH measurements were performed on a Standard pH meter PHM210 Radiometer Analytical (calibrated with aqueous buffers at pH 4 and 7 or 10) with a Crison 5208 Electrode (Barcelona, Spain). UV/Vis absorption spectra were recorded in 1 cm×1 cm quartz cuvettes (Hellma) on a diode array UV/Vis spectrophotometer (Evolution array, Thermo Scientific). Corrected fluorescence spectra upon one-photon excitation were recorded with a Photon Technology International QuantaMaster QM-1 spectrofluorimeter (PTI, Monmouth Junction, NJ) equipped with a Peltier cell holder (TLC50, Quantum Northwest, Shoreline, Wash.). The overall emission quantum yields after one-photon excitation φ were calculated from the relation: […]
(§4) where the subscript ref stands for standard samples. A(λexc) is the absorbance at the excitation wavelength λexc, D is the integrated emission spectrum, and n is the refractive index for the solvent. The uncertainty for the experimental value of φ was estimated to be ±20%. The standard fluorophore for the quantum yields measurements was Fluorescein in sodium hydroxide 0.1 M with φref=0.92. The titration experiments used for the determination of the thermodynamic constants were performed on a SpectraMax®M5e (Molecular Devices) plate-reader. The on- and off-rate constants were determined by stopped-flow experiments using a RX2000 rapid kinetic stopped flow accessory (Applied Photophysics, Leatherhead, UK). The circular dichroism spectra were recorded on a J-815 circular dichroism spectropolarimeter (Jasco). The photobleaching experiments were performed on a the Photon Technology International QuantaMaster QM-1 spectrofluorimeter (PTI, Monmouth Junction, NJ) equipped with a Peltier cell holder (TLC50, Quantum Northwest, Shoreline, Wash.).
The stability of the synthesized compounds was evaluated in aqueous solutions at neutral pH. Unstable and/or non-soluble compounds were not further studied. The photochemical and acido-basic properties of the remaining compounds were thus analyzed. Acid-base titrations were performed in aqueous solution by recording absorption and emission spectra as a function of pH.
The protonated phenol state of HBR was indeed shown to strongly absorb violet light (maximal absorption wavelength 397 nm), while the phenolate state strongly absorbs blue light (maximal absorption wavelength 449 nm) (FIG. 2). This red-shift in absorption upon ionization can be explained by the stronger electronic donation of the negatively charged phenolate. The possible fluorescence increase of HBR was evaluated by restricting the motion thereof in monitoring the influence of medium viscosity on HBR fluorescence emission. With a pKA of 8.4±0.1, HBR is mainly protonated at physiological pH, which enabled to forecast it could undergo a specific red shift upon binding-induced deprotonation within a tailored protein cavity. In aqueous solution, both acidic and basic states of HBR are weakly fluorescent (FIG. 3), emitting respectively at 470 and 545 nm with 0.02% and 0.3% fluorescence quantum yields.

Y-FAST [4] = target: T2, Y-FAST (Halorhodospira halophila, UniProt P16113, C69G/D97P/F96I/M100R/Q99S/T101G/T95M/Y94W/Y98T); experiment: Labeling of Y-FAST in living cells (yeast, E. coli, HeLa) by flow cytometry; type: cell-based
T2 construct: expressed in transfected cells; host or cells: HeLa cells, transiently transfected (pAG96, pIRES vector)
Experimental: as §1, §2

zebrafish embryos = experiment: Fitness of zebrafish embryos incubated with HMBR during development; type: in vivo; conditions: incubation from 50% epiboly to 24 hpf; data not shown
Y-FAST [5] = target: T2, Y-FAST; type: cell-based
Experimental: FIG. 21 is a set of graphs and images showing that Y-FAST fluorescence can be switched on and off by addition and withdrawal of the fluorogenic ligand. (a,b) HeLa cells expressing mCherry-Y-FAST were grown in a microfluidic channel and repeatedly incubated with HMBR-containing culture medium for 20 s and HMBR-free culture medium for 40 s. A multifunctional fluidic controller enabled several cycles of labeling/unlabeling. […] (a) Confocal timelapse showing two cycles of labeling/unlabeling (Ex/Em 488/493-575 nm). (b) Temporal evolution of the cell fluorescence upon addition (+) and removal (−) of HMBR. (c) Confocal micrographs of live HeLa cells expressing Dronpa-NLS (nucleus) and lyn11-Y-FAST (membrane) showing sequential imaging of nuclear Dronpa and membrane-anchored Y-FAST thanks to sequential on/off labeling of Y-FAST intercalated with on/off photoswitching of Dronpa (Ex/Em 488/493-797 nm). […] Scale bars 10 μm.
FIG. 22 is a set of graphs and images showing that Y-FAST enables the control of the density of fluorescent labeling independently of the expression level. […] Data represents mean±SD (n=15).
A rapid prototyping technique has been used for the device fabrication. A digital cutting machine (Graphtec, CE6000) was used to produce a 0.5 mm wide microfluidic channel in a 0.5 mm thick silicone layer, which was supported by a 50 μm thick plastic film. After removing the plastic film and oxygen plasma treatment, the silicone layer was bonded to a 5 mm thick layer of polydimethylsiloxane (PDMS) which was prepared by casting a mixture of A and B components of RTV 615 (GE, France) at a 10:1 w/w ratio on a flat silicon wafer and curing it at 80° C. for 2 h. Then, inlet and outlet holes were punched with a metal tube for connections. Afterward, the silicone-PDMS complex was bonded to a 160 μm thick cover slide after oxygen plasma treatment. Finally, the whole device was put in a 80° C. oven for 10 min. Before cell seeding, the device was sterilized under UV exposure for more than 30 min. […]

[6] = Circular dichroism stability of Y-FAST versus temperature; type: physicochemical; conditions: 25-45° C. range
Source text: Note that we verified by circular dichroism, that Y-FAST was stable in the considered temperature range in order to ascertain that our two-state model was valid for the subsequent analyses.
as §4

HeLa cells [7] = experiment: Brightness and photostability of fluorescent proteins expressed in mammalian (HeLa) cells; type: cell-based
Experimental: FIG. 18 is a set of graphs and images showing Y-FAST brightness and photo-resistance in mammalian cells. […] (a) Confocal micrographs of representative cells (Ex/Em 488/493-797 nm; scale bars 10 μm). Side-by-side images were recorded using the same settings for direct comparison of the fluorescence intensities. (b) Quantification of the fluorescence brightness of the different proteins (n=15-30 cells).
UnaG upon long-term observation with high power 488 nm laser excitation (light power 90 kW·cm-2, pixel dwell 1.58 μs). Plots show the fluorescence intensity as a function of the number of confocal microscope scans.
HEK293 and HeLa cells were cultured in DMEM supplemented with phenol red, Glutamax I, 10% fetal calf serum and 1% penicillin-streptomycin at 37° C. within a 5% CO2 atmosphere. For microscopy imaging, cells were seeded in μDish IBIDI (Biovalley) coated with poly-L-lysine. Cells were transiently transfected using Genejuice (Merck) according to the manufacturer's protocol.
as §1

[8] = Absorption and emission properties of HBR-binding PYP variants in presence of HBR; type: physicochemical; conditions: variant with HBR
Experimental: as §3, §4
The photophysical properties of the engineered fluorescent proteins were more precisely characterized. […] This 70 nm red-shift in absorption was in accordance with HBR being bound within the PYP-variant cavity in its deprotonated state. This red-shift in absorption upon binding was also accompanied with a large fluorescence increase at 540 nm (FIG. 10 and Table 2 below).

[9] = glycerol content increased from 0 to 40% (v/v)

T1 sequence (P16113 whole entry C69G, the tested form may be a part): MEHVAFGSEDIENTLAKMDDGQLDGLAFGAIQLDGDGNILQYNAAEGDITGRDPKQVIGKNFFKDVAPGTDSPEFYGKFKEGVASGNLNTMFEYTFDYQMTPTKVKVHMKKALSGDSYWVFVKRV

In the case of `O=C1NC(=S)S/C1=C\c1ccc(O)cc1` [HBR, (Z)-5-(4-hydroxybenzylidene)-2-thioxo-1,3-thiazolidin-4-one], the “toxicity for HeLa cells” value (HeLa cells [1]) is reported as “non-toxic”, the “binding to wild-type PYP” value (wild-type PYP) is reported as “do not bind” and the “fluorescence background in wild-type cells” value [2] is reported as “no or negligible fluorescence background”. The pKa ([3]; aqueous solution) was 8.4 ± 0.1, the “emission wavelength, acidic state” value ([3]; free in aqueous solution) was 470 nm and the “emission wavelength, basic state” value ([3]; free in aqueous solution) was 545 nm. For the same molecule, the “fluorescence quantum yield, acidic state” value ([3]; free in aqueous solution) was 0.02%, the “fluorescence quantum yield, basic state” value ([3]; free in aqueous solution) was 0.3% and the “maximal absorption wavelength, phenolate state” value ([3]; free in aqueous solution) was 449 nm. For the same molecule, the “maximal absorption wavelength, protonated phenol state” value ([3]; free in aqueous solution) was 397 nm, the maximal absorption wavelength ([3]; free, PBS pH 7.4) was 397 nm and the “increase of the fluorescence quantum yield, acidic state” value [3, 9] was “Six”. The “increase of the fluorescence quantum yield, basic state” value [3, 9] was “three-fold”.

In the case of `Cc1cc(/C=C2\SC(=S)NC2=O)ccc1O` [HMBR, (Z)-5-(4-hydroxy-3-methylbenzylidene)-2-thioxo-1,3-thiazolidin-4-one], the “fluorescent labeling of Y-FAST in living cells, comparison” value (Y-FAST [4]) is reported as “outperforms HBR”, the “toxicity for zebrafish embryos (mortality, development)” value (zebrafish embryos) is reported as “did not induce any mortality or perturbation in the development” and the “toxicity for HeLa cells” value (HeLa cells [1]) is reported as “non-toxic”. For the same molecule, the “binding to wild-type PYP” value (wild-type PYP) was “do not bind”, the “fluorescence background in wild-type cells” value [2] was “no or negligible fluorescence background” and the “time of labeling in cells” value (Y-FAST [5]; 5 μM HMBR, microfluidic channel) was “within about ten seconds”. The “concentration sufficient for full labeling in cells” value (Y-FAST [5]; HeLa cells expressing mCherry-Y-FAST) was 1 µM and the cell permeability (Y-FAST [5]; inferred from labeling time in HeLa cells) was “good cell permeability”.

B1: Clone 3: best fluorescent HBR-binding PYP variant, SEQ ID NO: 3, residues 94-101 WMIPTSRG (protein)
chain: MEHVAFGSEDIENTLAKMDDGQLDGLAFGAIQLDGDGNILQYNAAEGDITGRDPKQVIGKNFFKDVAPGTDSPEFYGKFKEGVASGNLNTMFEWMIPTSRGPTKVKVHMKKALSGDSYWVFVKRV
modifications: Functional derivative of SEQ ID NO: 48 - Clone 3
With B1 the “stability by circular dichroism” value [6] was “stable”, the photostability in cells (HeLa cells [7]; 488 nm excitation) was “more stable than UnaG and Venus, but less than EGFP” and the “fluorescence in mammalian cells” value (HeLa cells [7]; blue excitation at 488 nm, Y-FAST labeled with 5 μM HMBR) was “comparable with that of the green fluorescent proteins EGFP and UnaG, and two fold lower than that of the yellow fluorescent Venus”. The photostability in cells (HeLa cells [7]; excitation at 514 nm) was “almost did not photobleach”, the “fluorescence in mammalian cells” value (HeLa cells [7]; green excitation at 514 nm) was “five-fold less than Venus” and the Extinction coefficient [8] was 44,000 M^−1cm^−1. The “Relative brightness (% of EGFP)” value [8] was 12 % of EGFP, the brightness [8] was 4,000 and the λabs ([8]; PBS pH 7.4) was 467 nm. It also gave a λem ([8]; PBS pH 7.4) of 542 nm and a Fluorescence quantum yield ([8]; fraction) of 0.09.
